According to PMC2655680 (Nucleic Acids Research, 2009):
Where “and” joins values, the source holds several entries; their conditions need not be identical. Equal values may be shown once.

Molecular target: PNK–FHA (FHA domain of human PNK, amino acids 1–109) (Homo sapiens, UniProt Q96T60)
Type: binding
Settings: ITC, peptide injected into PNK–FHA, 10°C, pH 7.5; floating variable of the fit

- N (stoichiometry, estimated molar ratio peptide:PNK–FHA): 0.46 and 0.50 and 0.56 and 0.88 and 0.51
Sequence: YAGSTDENTDSE
